Assay results published in ChEMBL document CHEMBL4507296 (2021).
Calls of active or inactive are those of the source. No cut-off for these calls is given here.

Experiments:
[1] = biological target: Histamine H1 receptor (Homo sapiens) (UniProt P35367); conditions: Compound concentration 10.0 uM
[2] = biological target: D(1A) dopamine receptor (Homo sapiens) (UniProt P21728); conditions: Compound concentration 10.0 uM
[3] = biological target: Serine/threonine-protein kinase 32B (Homo sapiens) (UniProt Q9NY57); conditions: Compound concentration 1000.0 nM
[4] = biological target: Serine/threonine-protein kinase tousled-like 2 (Homo sapiens) (UniProt Q86UE8); conditions: Compound concentration 1000.0 nM
[5] = biological target: Calcium/calmodulin-dependent protein kinase type 1 (Homo sapiens) (UniProt Q14012); conditions: Compound concentration 1000.0 nM
[6] = biological target: STE20/SPS1-related proline-alanine-rich protein kinase (Homo sapiens) (UniProt Q9UEW8); conditions: Compound concentration 1000.0 nM
[7] = biological target: Serine/threonine-protein kinase D1 (Homo sapiens) (UniProt Q15139); conditions: Compound concentration 1000.0 nM
[8] = biological target: Angiopoietin-1 receptor (Homo sapiens) (UniProt Q02763); conditions: Compound concentration 1000.0 nM
[9] = biological target: Serine/threonine-protein kinase B-raf (Homo sapiens) (UniProt P15056); conditions: Compound concentration 1000.0 nM
[10] = system: Mast/stem cell growth factor receptor Kit (Homo sapiens), P10721 [D816H]; conditions: Compound concentration 1000.0 nM
[11] = system: Receptor-type tyrosine-protein kinase FLT3 (Homo sapiens), P36888 [D835V]; conditions: Compound concentration 1000.0 nM
[12] = biological target: Tyrosine-protein kinase ABL1 (Homo sapiens) (UniProt P00519); conditions: Compound concentration 1000.0 nM
[13] = biological target: Dual specificity tyrosine-phosphorylation-regulated kinase 1B (Homo sapiens) (UniProt Q9Y463); conditions: Compound concentration 1000.0 nM
[14] = biological target: G protein-coupled receptor kinase 3 (Homo sapiens) (UniProt P35626); conditions: Compound concentration 1000.0 nM
[15] = biological target: Serine/threonine-protein kinase 38-like (Homo sapiens) (UniProt Q9Y2H1); conditions: Compound concentration 1000.0 nM
[16] = biological target: Tyrosine-protein kinase ABL2 (Homo sapiens) (UniProt P42684); conditions: Compound concentration 1000.0 nM
[17] = biological target: Myosin light chain kinase, smooth muscle (Homo sapiens) (UniProt Q15746); conditions: Compound concentration 1000.0 nM
[18] = biological target: Mitogen-activated protein kinase 3 (Homo sapiens) (UniProt P27361); conditions: Compound concentration 1000.0 nM
[19] = biological target: Protein kinase C iota type (Homo sapiens) (UniProt P41743); conditions: Compound concentration 1000.0 nM
[20] = system: Phosphatidylinositol 4,5-bisphosphate 3-kinase catalytic subunit alpha isoform (Homo sapiens), P42336 [H1047Y]; conditions: Compound concentration 1000.0 nM
[21] = system: Fibroblast growth factor receptor 3 (Homo sapiens), P22607 [G697C]; conditions: Compound concentration 1000.0 nM
[22] = biological target: Cyclin-dependent kinase 17 (Homo sapiens) (UniProt Q00537); conditions: Compound concentration 1000.0 nM
[23] = biological target: Serine/threonine-protein kinase STK11 (Homo sapiens) (UniProt Q15831); conditions: Compound concentration 1000.0 nM
[24] = biological target: Serine/threonine-protein kinase pim-3 (Homo sapiens) (UniProt Q86V86); conditions: Compound concentration 1000.0 nM
[25] = biological target: Cyclin-dependent kinase-like 5 (Homo sapiens) (UniProt O76039); conditions: Compound concentration 1000.0 nM
[26] = biological target: Tyrosine-protein kinase Tec (Homo sapiens) (UniProt P42680); conditions: Compound concentration 1000.0 nM
[27] = biological target: Non-receptor tyrosine-protein kinase TYK2 (Homo sapiens) (UniProt P29597); conditions: Compound concentration 1000.0 nM
[28] = biological target: Ephrin type-B receptor 1 (Homo sapiens) (UniProt P54762); conditions: Compound concentration 1000.0 nM
[29] = biological target: Rhodopsin kinase GRK7 (Homo sapiens) (UniProt Q8WTQ7); conditions: Compound concentration 1000.0 nM
[30] = biological target: Beta-2 adrenergic receptor (Homo sapiens) (UniProt P07550); conditions: Compound concentration 10.0 uM
[31] = biological target: Serine/threonine-protein kinase Nek2 (Homo sapiens) (UniProt P51955); conditions: Compound concentration 1000.0 nM
[32] = biological target: Transient receptor potential cation channel subfamily M member 8 (Homo sapiens, UniProt Q7Z2W7); assay: Voltage activation at 12 °C
[33] = biological target: Ribosomal protein S6 kinase beta-1 (Homo sapiens) (UniProt P23443); conditions: Compound concentration 1000.0 nM
[34] = biological target: Proto-oncogene tyrosine-protein kinase receptor Ret (Homo sapiens) (UniProt P07949); conditions: Compound concentration 1000.0 nM
[35] = biological target: Serine/threonine-protein kinase Chk1 (Homo sapiens) (UniProt O14757); conditions: Compound concentration 1000.0 nM
[36] = biological target: Discoidin domain-containing receptor 2 (Homo sapiens) (UniProt Q16832); conditions: Compound concentration 1000.0 nM
[37] = biological target: Phosphatidylinositol 4,5-bisphosphate 3-kinase catalytic subunit alpha isoform (Homo sapiens) (UniProt P42336); conditions: Compound concentration 1000.0 nM
[38] = biological target: Dual specificity protein kinase CLK3 (Homo sapiens) (UniProt P49761); conditions: Compound concentration 1000.0 nM
[39] = biological target: Phosphatidylinositol 3-kinase catalytic subunit type 3 (Homo sapiens) (UniProt Q8NEB9); conditions: Compound concentration 1000.0 nM
[40] = biological target: Substance-P receptor (Homo sapiens) (UniProt P25103); assay: Neurokinin 1 (human) CEREP ligand profiling; conditions: Compound concentration 10.0 uM
[41] = biological target: GABA-A receptor; anion channel (Rattus norvegicus) (UniProt O09028+P15431+P18506+P18508+P19969+P20236+P23574+P23576+P28471+P28473+P30191+P62813+P63079+P63138+Q91ZM7+Q9ES14); conditions: Compound concentration 10.0 uM
[42] = biological target: Uncharacterized serine/threonine-protein kinase SBK3 (Homo sapiens) (UniProt P0C264); conditions: Compound concentration 1000.0 nM
[43] = system: Epidermal growth factor receptor (Homo sapiens), P00533 [UNDEFINED MUTATION]; conditions: Compound concentration 1000.0 nM
[44] = biological target: Mitogen-activated protein kinase 9 (Homo sapiens) (UniProt P45984); conditions: Compound concentration 1000.0 nM

Sequence of Cyclin-dependent kinase-like 5 (Homo sapiens) (O76039 whole entry): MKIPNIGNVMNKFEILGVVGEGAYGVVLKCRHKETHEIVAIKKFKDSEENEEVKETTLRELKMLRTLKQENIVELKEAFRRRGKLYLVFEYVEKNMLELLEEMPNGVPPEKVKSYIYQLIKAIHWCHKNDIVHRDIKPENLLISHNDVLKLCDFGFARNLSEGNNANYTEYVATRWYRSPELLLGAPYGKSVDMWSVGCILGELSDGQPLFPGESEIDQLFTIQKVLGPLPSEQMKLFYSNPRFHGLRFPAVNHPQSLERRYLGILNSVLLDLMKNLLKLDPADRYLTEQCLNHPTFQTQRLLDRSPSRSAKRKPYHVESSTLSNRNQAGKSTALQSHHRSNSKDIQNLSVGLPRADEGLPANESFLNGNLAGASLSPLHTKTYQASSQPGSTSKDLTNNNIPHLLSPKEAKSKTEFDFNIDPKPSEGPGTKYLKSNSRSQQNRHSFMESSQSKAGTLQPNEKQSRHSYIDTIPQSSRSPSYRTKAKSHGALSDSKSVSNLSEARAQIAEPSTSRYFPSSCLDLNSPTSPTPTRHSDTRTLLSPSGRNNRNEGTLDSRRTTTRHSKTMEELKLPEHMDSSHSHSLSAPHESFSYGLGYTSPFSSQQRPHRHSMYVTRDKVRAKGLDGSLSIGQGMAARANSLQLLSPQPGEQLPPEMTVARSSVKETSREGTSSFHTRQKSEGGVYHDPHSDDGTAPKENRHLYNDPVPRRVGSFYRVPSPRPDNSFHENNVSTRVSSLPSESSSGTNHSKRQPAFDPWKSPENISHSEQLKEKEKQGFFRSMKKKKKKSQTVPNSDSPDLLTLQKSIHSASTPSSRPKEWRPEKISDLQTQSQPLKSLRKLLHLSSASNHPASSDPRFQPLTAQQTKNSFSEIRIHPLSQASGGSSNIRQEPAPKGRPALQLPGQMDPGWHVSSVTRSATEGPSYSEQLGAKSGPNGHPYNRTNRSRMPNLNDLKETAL
Sequence of Serine/threonine-protein kinase B-raf (Homo sapiens) (P15056 whole entry): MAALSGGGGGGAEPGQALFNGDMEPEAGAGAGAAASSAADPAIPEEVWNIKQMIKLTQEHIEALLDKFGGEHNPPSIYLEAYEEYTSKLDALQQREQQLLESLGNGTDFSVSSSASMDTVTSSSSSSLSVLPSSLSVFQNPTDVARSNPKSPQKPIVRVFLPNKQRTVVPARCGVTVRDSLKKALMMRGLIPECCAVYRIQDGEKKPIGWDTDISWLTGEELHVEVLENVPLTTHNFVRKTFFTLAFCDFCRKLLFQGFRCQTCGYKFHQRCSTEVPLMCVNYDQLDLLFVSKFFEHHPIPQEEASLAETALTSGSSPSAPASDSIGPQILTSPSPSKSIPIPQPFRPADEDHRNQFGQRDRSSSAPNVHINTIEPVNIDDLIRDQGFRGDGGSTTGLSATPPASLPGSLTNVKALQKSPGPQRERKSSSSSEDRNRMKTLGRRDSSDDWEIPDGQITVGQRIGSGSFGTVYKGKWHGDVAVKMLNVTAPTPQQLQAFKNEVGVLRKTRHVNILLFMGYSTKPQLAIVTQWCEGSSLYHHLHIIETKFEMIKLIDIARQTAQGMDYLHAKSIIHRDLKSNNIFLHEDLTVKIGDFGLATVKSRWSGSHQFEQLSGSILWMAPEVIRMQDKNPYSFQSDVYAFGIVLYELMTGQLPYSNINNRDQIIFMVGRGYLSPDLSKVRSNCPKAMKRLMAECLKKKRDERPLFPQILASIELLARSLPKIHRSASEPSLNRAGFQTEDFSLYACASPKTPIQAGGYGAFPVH
Sequence of Phosphatidylinositol 4,5-bisphosphate 3-kinase catalytic subunit alpha isoform (Homo sapiens) (P42336 whole entry, canonical isoform): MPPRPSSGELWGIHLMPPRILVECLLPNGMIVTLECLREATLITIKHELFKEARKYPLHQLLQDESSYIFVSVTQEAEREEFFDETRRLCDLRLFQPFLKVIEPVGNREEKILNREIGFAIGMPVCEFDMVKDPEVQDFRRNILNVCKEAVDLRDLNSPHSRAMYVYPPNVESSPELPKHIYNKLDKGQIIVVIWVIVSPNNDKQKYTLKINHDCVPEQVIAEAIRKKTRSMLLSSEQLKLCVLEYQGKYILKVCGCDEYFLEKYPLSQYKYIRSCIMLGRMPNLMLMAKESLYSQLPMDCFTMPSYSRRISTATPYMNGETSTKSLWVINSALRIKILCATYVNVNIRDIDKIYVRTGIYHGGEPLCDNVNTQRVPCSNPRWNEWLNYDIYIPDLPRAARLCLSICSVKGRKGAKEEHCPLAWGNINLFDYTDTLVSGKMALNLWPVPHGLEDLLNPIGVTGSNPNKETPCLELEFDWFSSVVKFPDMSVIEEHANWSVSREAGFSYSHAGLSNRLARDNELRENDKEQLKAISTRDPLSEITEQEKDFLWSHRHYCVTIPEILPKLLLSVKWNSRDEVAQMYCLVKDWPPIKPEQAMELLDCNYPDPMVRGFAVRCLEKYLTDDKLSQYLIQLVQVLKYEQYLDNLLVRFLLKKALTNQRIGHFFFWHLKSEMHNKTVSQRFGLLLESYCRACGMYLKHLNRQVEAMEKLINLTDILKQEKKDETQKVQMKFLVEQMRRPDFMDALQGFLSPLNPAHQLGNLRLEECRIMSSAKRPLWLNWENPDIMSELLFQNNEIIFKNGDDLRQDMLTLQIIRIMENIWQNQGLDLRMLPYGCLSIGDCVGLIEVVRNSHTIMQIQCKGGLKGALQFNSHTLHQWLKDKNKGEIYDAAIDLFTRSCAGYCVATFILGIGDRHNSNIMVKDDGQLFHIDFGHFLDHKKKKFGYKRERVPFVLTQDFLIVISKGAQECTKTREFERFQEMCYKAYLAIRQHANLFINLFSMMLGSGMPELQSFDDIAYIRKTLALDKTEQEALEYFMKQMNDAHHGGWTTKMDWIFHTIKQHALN
Sequence of Proto-oncogene tyrosine-protein kinase receptor Ret (Homo sapiens) (P07949 whole entry): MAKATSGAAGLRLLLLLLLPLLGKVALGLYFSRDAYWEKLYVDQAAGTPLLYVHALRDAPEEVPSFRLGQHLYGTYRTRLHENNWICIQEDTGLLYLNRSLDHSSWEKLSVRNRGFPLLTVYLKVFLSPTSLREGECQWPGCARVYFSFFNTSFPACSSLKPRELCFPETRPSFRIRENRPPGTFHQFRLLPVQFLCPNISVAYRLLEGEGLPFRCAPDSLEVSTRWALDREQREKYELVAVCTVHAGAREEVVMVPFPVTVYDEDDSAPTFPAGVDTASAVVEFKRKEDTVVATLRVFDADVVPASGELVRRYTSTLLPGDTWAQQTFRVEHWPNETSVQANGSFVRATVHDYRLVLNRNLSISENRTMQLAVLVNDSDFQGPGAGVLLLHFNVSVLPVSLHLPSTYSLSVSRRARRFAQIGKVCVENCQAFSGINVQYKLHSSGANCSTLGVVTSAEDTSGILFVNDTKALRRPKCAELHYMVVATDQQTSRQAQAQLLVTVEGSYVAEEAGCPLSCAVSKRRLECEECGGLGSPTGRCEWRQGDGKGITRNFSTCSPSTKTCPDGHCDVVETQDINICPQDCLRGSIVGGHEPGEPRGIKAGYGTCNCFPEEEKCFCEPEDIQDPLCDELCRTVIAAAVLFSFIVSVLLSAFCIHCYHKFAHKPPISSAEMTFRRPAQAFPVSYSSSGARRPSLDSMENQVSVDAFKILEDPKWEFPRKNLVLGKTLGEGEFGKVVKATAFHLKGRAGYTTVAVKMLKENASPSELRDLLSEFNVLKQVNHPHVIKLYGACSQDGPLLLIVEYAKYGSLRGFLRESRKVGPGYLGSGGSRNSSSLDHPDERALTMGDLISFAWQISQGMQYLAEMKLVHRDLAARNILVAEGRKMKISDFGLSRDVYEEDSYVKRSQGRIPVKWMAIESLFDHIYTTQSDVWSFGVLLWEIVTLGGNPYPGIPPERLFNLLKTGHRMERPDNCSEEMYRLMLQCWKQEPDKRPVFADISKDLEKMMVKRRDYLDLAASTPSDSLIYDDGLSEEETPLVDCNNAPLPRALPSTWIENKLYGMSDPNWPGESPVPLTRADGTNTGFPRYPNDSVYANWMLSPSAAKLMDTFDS
Sequence of Serine/threonine-protein kinase STK11 (Homo sapiens) (Q15831 whole entry): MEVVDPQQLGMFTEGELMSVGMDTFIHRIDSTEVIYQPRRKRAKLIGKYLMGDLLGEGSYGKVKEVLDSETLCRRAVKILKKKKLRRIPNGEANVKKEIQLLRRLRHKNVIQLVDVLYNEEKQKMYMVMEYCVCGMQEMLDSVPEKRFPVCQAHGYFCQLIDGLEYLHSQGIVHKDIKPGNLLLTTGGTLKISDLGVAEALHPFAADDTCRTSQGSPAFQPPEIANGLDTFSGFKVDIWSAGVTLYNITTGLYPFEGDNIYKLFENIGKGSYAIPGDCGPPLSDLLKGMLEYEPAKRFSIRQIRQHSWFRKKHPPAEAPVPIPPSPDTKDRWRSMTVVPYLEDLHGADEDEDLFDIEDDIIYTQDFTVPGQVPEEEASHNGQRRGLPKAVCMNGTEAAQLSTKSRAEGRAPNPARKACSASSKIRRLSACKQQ
Sequence of Mitogen-activated protein kinase 3 (Homo sapiens) (P27361 whole entry): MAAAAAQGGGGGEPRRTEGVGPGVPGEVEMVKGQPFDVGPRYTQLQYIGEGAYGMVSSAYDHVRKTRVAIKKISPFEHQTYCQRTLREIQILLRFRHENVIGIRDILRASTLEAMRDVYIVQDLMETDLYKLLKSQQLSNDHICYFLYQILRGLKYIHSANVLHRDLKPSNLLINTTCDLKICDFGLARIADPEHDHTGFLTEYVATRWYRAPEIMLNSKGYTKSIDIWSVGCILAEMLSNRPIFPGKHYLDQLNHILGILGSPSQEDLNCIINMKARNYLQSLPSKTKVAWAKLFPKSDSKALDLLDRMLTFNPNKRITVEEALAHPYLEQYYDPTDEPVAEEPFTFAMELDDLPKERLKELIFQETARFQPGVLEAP

SMILES: C[C@H](c1ccc(F)cc1)N(Cc1cccc(C(=O)O)c1)C(=O)c1cnc2ccccc2c1 [PF-05105679]
- inhibition [1]: 22.9%
- inhibition [2]: -0.79%
- residual activity [3]: 97%
- residual activity [4]: 97%
- residual activity [5]: 100%
- residual activity [6]: 82%
- residual activity [7]: 100%
- residual activity [8]: 98%
- residual activity [9]: 90%
- residual activity [10]: 100%
- residual activity [11]: 98%
- residual activity [12]: 100%
- residual activity [13]: 100%
- residual activity [14]: 40%
- residual activity [15]: 100%
- residual activity [16]: 82%
- residual activity [17]: 76%
- residual activity [18]: 100%
- residual activity [19]: 100%
- residual activity [20]: 100%
- residual activity [21]: 100%
- residual activity [22]: 84%
- residual activity [23]: 100%
- residual activity [24]: 100%
- residual activity [25]: 100%
- residual activity [26]: 80%
- residual activity [27]: 92%
- residual activity [28]: 83%
- residual activity [29]: 100%
- inhibition [30]: 23.7%
- residual activity [31]: 94%
- IC50 [32]: 13.8 nM (active)
- residual activity [33]: 100%
- residual activity [34]: 100%
- residual activity [35]: 100%
- residual activity [36]: 96%
- residual activity [37]: 100%
- residual activity [38]: 100%
- residual activity [39]: 100%
- inhibition [40]: 18%
- inhibition [41]: 28.4%
- residual activity [42]: 100%
- residual activity [43]: 100%
- residual activity [44]: 81%
